Key:
[1] = test system: human ectopic lesions; experiment: Endometriosis mouse model by hetero-transplantation with human endometrial cells in SCID mice; type: in vivo; details: SCID mice with HECs carrying luciferase; 25 mg/kg once a day, 30 days; p=0.022; FIGS. 9B, 9C
Description: Endometriosis Mouse Model by Hetero-transplantation with immortalized human endometrial cells: The luciferase stable immortalized human endometrial epithelial cells […] and luciferase stable immortalized human endometrial stromal cells (LIHESCs) were generated from IHESCs isolated from endometria obtained from hysterectomies for benign conditions and IHEECs generated from ovarian endometrioma by transducing lentivirus-expressing luciferase and then the expression of luciferase was validated with the luciferase activity assay. Matrigel contained the mixture of LIHESCs (1×10^6 cells) and LIHEECs (1×10^6 cells) were injected into the peritoneal cavity of female severe combined immune deficiency (SCID) mice (6 weeks old) to induce endometriosis. Henceforth, we refer to the mixture of LIHEECs and LIHESCs as human endometrial cells (HEC). […] To noninvasively determine the progression of human ectopic lesions, we injected mice with 150 mg/kg of D-Luciferin intra-peritoneally 5 min before imaging, and then determined luciferase activities of human ectopic lesions in mice using In Vivo Image System.

[2] = target: T1, NR4A1 (Homo sapiens, UniProt P22736); experiment: Luciferase assay, NR4A1/NBRE-luc in ESECT-7 cells; type: cell-based; details: ESECT-7 cells transfected with NR4A1/NBRE-luc; 18 hr treatment; FIG. 2A
T1 construct: expressed in transfected cells; host or cells: ESECT-7 patient-derived endometriotic cells
T1 sequence (P22736 whole entry, species assumed): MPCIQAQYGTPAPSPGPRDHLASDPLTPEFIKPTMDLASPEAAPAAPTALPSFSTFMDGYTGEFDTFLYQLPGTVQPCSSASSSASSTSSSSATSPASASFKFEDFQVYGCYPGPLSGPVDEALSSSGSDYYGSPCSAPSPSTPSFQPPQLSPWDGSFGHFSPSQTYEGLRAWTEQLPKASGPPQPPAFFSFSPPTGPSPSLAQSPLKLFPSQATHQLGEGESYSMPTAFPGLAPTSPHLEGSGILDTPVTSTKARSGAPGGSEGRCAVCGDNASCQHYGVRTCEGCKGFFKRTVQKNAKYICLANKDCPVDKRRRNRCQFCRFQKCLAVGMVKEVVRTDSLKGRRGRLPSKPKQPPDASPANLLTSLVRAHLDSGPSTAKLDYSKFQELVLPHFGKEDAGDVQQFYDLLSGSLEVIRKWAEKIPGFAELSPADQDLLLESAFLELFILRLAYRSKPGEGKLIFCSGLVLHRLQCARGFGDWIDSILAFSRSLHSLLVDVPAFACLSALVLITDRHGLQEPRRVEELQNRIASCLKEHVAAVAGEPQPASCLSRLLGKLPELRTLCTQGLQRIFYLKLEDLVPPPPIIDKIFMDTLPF
Description: (§1) Luciferase assay: ESECT-7 and ESECT-40 cells were plated on 12-well plates in DMEM/F12 supplemented with 2.5% charcoal-stripped FBS. After overnight attachment and growth, various amounts of DNA [i.e., UASx5-Luc (500 ng), GAL4-NR4A1 (50 ng), NBREx3-Luc (800 ng), NurREx3-Luc (800 ng) and Flag-NR4A1 (80 ng)] were co-transfected into each well using Lipofectamine 2000 reagent (Invitrogen, Carlsbad, CA) according to the manufacturer's protocol. After 6 hr of transfection, cells were treated with plating medium (as above) containing either solvent (DMSO) or indicated concentrations of the compound for 18 hr. Cells were then lysed and cell extracts were used for chemiluminescence quantification of luciferase activity. Luciferase activity values were normalized against corresponding protein concentration values determined by Bradford assay. Both GAL4- and Flag-NR4A1 constructs contain full-length NR4A1 coding sequence and all the plasmids used in this study were previously described.

[3] = test system: NEM cells; experiment: Western blotting of growth promoting and proapoptotic gene products, NEM cells; type: cell-based, human
[4] = test system: ESECT-40 cells; experiment: Annexin V staining, ESECT-40; type: cell-based, human; details: 10 μM DIM-C-pPhOH-3-Cl-5-OCH3, 25 μM DIM-C-pPhOH, FIG. 3B
Description: Annexin V staining: ESECT-7 and ESECT-40 cells were seeded in Nunc chambered cover glass followed by various drug treatments. The cells were then washed with ice-cold PBS, and 5 μL Alexa Fluor® 488 Annexin V with 100 μg/mL PI (as per the manufacturer's instructions) were added to the cells and incubated for 15 min, and the cells were observed using a Zeiss confocal fluorescence microscope.

[5] = target: T2, GAL4-NR4A1 (Homo sapiens, UniProt P22736); experiment: Luciferase assay, GAL4-NR4A1 chimera/UAS-luc in ESECT-7 cells; type: cell-based; details: ESECT-7 cells transfected with GAL4-NR4A1 chimera/UAS-luc; 18 hr treatment; FIG. 2A
T2 construct: GAL4 (fusion partner); expressed in transfected cells; host or cells: ESECT-7 patient-derived endometriotic cells
T2 sequence (P22736 with tags, fused parts or gaps): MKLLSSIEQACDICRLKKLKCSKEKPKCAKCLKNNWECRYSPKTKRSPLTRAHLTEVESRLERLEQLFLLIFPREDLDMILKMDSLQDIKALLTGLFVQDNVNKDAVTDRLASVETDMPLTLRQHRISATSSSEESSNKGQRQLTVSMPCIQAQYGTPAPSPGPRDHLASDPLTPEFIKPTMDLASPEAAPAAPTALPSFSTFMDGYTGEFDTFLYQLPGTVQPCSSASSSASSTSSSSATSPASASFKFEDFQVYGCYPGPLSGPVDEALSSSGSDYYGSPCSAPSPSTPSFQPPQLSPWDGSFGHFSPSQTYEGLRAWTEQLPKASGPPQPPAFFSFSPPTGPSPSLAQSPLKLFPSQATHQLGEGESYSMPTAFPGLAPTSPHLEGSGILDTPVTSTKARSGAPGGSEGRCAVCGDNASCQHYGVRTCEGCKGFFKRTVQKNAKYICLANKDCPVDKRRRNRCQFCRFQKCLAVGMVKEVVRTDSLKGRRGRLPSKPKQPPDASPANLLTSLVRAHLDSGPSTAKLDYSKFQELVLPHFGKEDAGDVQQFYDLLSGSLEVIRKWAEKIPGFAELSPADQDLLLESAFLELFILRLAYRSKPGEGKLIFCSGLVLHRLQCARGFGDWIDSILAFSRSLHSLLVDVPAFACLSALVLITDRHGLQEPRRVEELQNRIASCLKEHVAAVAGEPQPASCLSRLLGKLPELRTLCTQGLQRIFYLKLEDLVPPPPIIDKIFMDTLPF
Description: as §1

[6] = test system: ESECT-7 cells; experiment: Quantitative real-time PCR of fibrosis markers, ESECT-7; type: cell-based, human; details: 24 hours, 20-25 μM DIM-C-pPhOH, 5-10 μM DIM-C-pPhOH-3-Cl-5-OCH3, vs DMSO control, FIG. 5C
Description: Quantitative real-time PCR: Total RNA was isolated from cultured cells according to the manufacturer's instructions (Zymo Research, Irvine, CA). The concentration and purity of the RNA samples were determined using a nanodrop spectrophotometer. Total RNA was reverse transcribed using iTaq Universal SYBR Green One-Step Kit (Thermo Fisher Scientific, Grand Island, NY) using the manufacturer's protocol with the CFX384 real-time PCR System (Bio-Rad). The comparative cycle threshold method was used for relative quantitation of samples. Values for each gene were normalized to expression levels of TATA-binding protein. The sequences of the primers used for real-time PCR included the following: α-SMA, 5′-GGCCGAGATCTCACTGACTAC-3′ (sense, SEQ ID NO. 13) and 5′-TTC ATG GAT GCC AGC AGA-3′ (antisense, SEQ ID NO. 14); COL1A1, 5′-CAG CCG CTT CAC CTA CAG C-3′ (sense, SEQ ID NO. 15) and 5′-TTTTGTATTCAATCAGTGTCTTGCC-3′ (antisense, SEQ ID NO. 16); CTGF, 5′-TTGGCCCAGACCCAACTATG-3′(sense, SEQ ID NO. 17) and 5′-CAGGAGGCGTTGTCATTGGT-3′ (antisense, SEQ ID NO. 18); FN, 5′-GGG AGC CTC GAA GAG C-3′ (sense 19) and 5′-AACAAGTACAAACCAACGCA-3′ (antisense, SEQ ID NO. 20) and TATA-binding protein, 5′-GATCAGAACAACAGCCTGCC-3′ (sense, SEQ ID NO. 21) and 5′-TTCTGAATAGGCTGTGGGGT-3′ […].

COc1cc(C(c2c[nH]c3ccccc23)c2c[nH]c3ccccc23)cc(Cl)c1O [DIM-C-pPhOH-3-Cl-5-OCH3]
reduction of luciferase activity in human ectopic lesions compared with the vehicle [1]: 13.4 fold
intrinsic transcriptional activity of NR4A1 [2]: inhibited the intrinsic transcriptional activity
levels of the cleaved form of PARP and Bax ([3]; 25 μM DIM-C-pPhOH, 10 μM DIM-C-pPhOH-3-Cl-5-OCH3, vs DMSO control, FIG. 4D): did not enhance
cMyc and EGFR expression ([3]; 15-25 μM DIM-C-pPhOH, 5-10 μM DIM-C-pPhOH-3-Cl-5-OCH3, vs DMSO control, FIG. 4B): did not decrease
Annexin V staining (apoptosis) [4]: significantly induced
intrinsic transcriptional activity of GAL4-NR4A1 [5]: inhibited the intrinsic transcriptional activity
mRNA levels of fibrosis markers (FN, Col1A1, CTGF) [6]: decreased mRNA levels
